Results from the supplement of paper PMC11061612.

Columns and labels:
Assay in all cases: Bliss excess, mean over the matrix (fraction); higher = more synergy
[1] = test system: OVCAR-4 (Ovarian Carcinoma)
In short: (§1)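 Bliss excess equals the observed combination effect minus the expected value EA + EB − EA·EB, where EA and EB are the effects of each agent alone. Combination Emax is the second-highest inhibition within the matrix. Inhibition was scaled from CellTiter-Glo 2.0 luminescence, with 0 set by vehicle wells and 1 by blank wells, after 72 hours of two-drug dosing of cells plated in 1536-well plates.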

D-263MG (Glioblastoma) = test system: D-263MG (Glioblastoma)
In short: as §1

EW-24 (Ewing's Sarcoma) = test system: EW-24 (Ewing's Sarcoma)
In short: as §1

[2] = test system: NUGC-3 (Gastric Carcinoma)
In short: as §1

[3] = test system: Hs-766T (Pancreatic Carcinoma)
In short: as §1

[4] = test system: NCI-H358 (Lung Adenocarcinoma)
In short: as §1

[5] = test system: KMOE-2 (Acute Myeloid Leukemia)
In short: as §1

[6] = test system: NCI-H1915 (Non-Small Cell Lung Carcinoma)
In short: as §1

[7] = test system: EFM-19 (Breast Carcinoma)
In short: as §1

PWR-1E (Non-Cancerous) = test system: PWR-1E (Non-Cancerous)
In short: as §1

[8] = test system: TE-1 (Esophageal Squamous Cell Carcinoma)
In short: as §1

TK10 (Kidney Carcinoma) = test system: TK10 (Kidney Carcinoma)
In short: as §1

[9] = test system: HSC-4 (Oral Cavity Carcinoma)
In short: as §1

[10] = test system: LU-65 (Non-Small Cell Lung Carcinoma)
In short: as §1

[11] = test system: SCC-15 (Oral Cavity Carcinoma)
In short: as §1

[12] = test system: EoL-1-cell (Acute Myeloid Leukemia)
In short: as §1

[13] = test system: OSC-20 (Oral Cavity Carcinoma)
In short: as §1

NB69 (Neuroblastoma) = test system: NB69 (Neuroblastoma)
In short: as §1

[14] = test system: OE19 (Esophageal Adenocarcinoma)
In short: as §1

[15] = test system: NEC8 (Other Solid Carcinomas)
In short: as §1

Row | SMILES | Bliss excess [1] | Bliss excess (D-263MG (Glioblastoma)) | Bliss excess (EW-24 (Ewing's Sarcoma)) | Bliss excess [2] | Bliss excess [3] | Bliss excess [4] | Bliss excess [5] | Bliss excess [6] | Bliss excess [7] | Bliss excess (PWR-1E (Non-Cancerous)) | Bliss excess [8] | Bliss excess (TK10 (Kidney Carcinoma)) | Bliss excess [9] | Bliss excess [10] | Bliss excess [11] | Bliss excess [12] | Bliss excess [13] | Bliss excess (NB69 (Neuroblastoma)) | Bliss excess [14] | Bliss excess [15]
1 | COc1cccc(OCCCN)c1-c1cc(Nc2cnc(C#N)cn2)n[nH]1 [Prexasertib] + CCc1c2c(nc3ccc(O)cc13)-c1cc3c(c(=O)n1C2)COC(=O)[C@]3(O)CC [SN-38] (first compound max 1 µM, 7x7, partner max 0.3 µM) | 0.0476 | 0.0688 | -0.0615 | 0.0136 | -0.0063 | -0.0212 | 0.0296 | 0.0086 | 0.155 | 0.0309 | -0.0025 | -0.0257 | -0.0372 | -0.0185 | -0.0236 | -0.0317 | -0.0477 | -0.0556 | 0.129 | 0.0129
2 | COc1cccc(OCCCN)c1-c1cc(Nc2cnc(C#N)cn2)n[nH]1 [Prexasertib] + CN(C)CCCOc1ccc(-c2ccc3ncc4c(c3c2)n(C2CCOCC2)c(=O)n4C)cn1 [AZD0156] (first compound max 1 µM, 7x7, partner max 1 µM) | 0.0086 | 0.0273 | -0.0082 | 0.0083 | -0.0062 | -0.034 | -0.0363 | -0.0086 | -0.0701 | -0.0276 | -0.0356 | -0.0239 | -0.0079 | -0.023 | -0.0333 | -0.0145 | -0.0111 | 0.0064 | 0.0198 | -0.009
3 | COc1cccc(OCCCN)c1-c1cc(Nc2cnc(C#N)cn2)n[nH]1 [Prexasertib] + C[C@@H]1COCCN1C2=NC(=NC(=C2)C3(CC3)[S@](=N)(=O)C)C4=C5C=CNC5=NC=C4 [AZD6738] (first compound max 1 µM, 7x7, partner max 10 µM) | -0.025 | -0.019 | -0.0522 | -0.019 | 0.0101 | -0.021 | -0.0043 | -0.0396 | -0.0296 | 0.0243 | -0.0617 | 0.0238 | 0.0305 | -0.0173 | -0.0316 | -0.0109 | -0.0583 | -0.0228 | -0.0277 | -0.009
4 | COc1cccc(OCCCN)c1-c1cc(Nc2cnc(C#N)cn2)n[nH]1 [Prexasertib] + Cc1cc2ncnn2cc1Nc1ncc2c(n1)n(C1CCOCC1)c(=O)n2C [AZD7648] (first compound max 1 µM, 7x7, partner max 10 µM) | -0.0739 | -0.0394 | -0.0019 | -0.0129 | 0.0183 | -0.0438 | 0.0172 | -0.008 | -0.0676 | -0.0243 | -0.0266 | 0.0053 | -0.0421 | -0.0099 | -0.0065 | -0.0003 | 0.0115 | 0.0182 | -0.0291 | 0
5 | COc1cccc(OCCCN)c1-c1cc(Nc2cnc(C#N)cn2)n[nH]1 [Prexasertib] + O=C(c1cc(Cc2n[nH]c(=O)c3ccccc23)ccc1F)N1CCN(C(=O)C2CC2)CC1 [Olaparib] (first compound max 1 µM, 7x7, partner max 10 µM) | -0.0589 | -0.0665 | -0.0292 | -0.143 | -0.032 | -0.0809 | 0.0279 | -0.0002 | -0.0094 | -0.211 | -0.11 | -0.0975 | 0.029 | -0.0678 | 0.0242 | -0.0146 | -0.013 | -0.0313 | -0.125 | 0.0104
6 | CCc1c2c(nc3ccc(O)cc13)-c1cc3c(c(=O)n1C2)COC(=O)[C@]3(O)CC [SN-38] + CN(C)CCCOc1ccc(-c2ccc3ncc4c(c3c2)n(C2CCOCC2)c(=O)n4C)cn1 [AZD0156] (first compound max 0.3 µM, 7x7, partner max 1 µM) | -0.0149 | 0.0701 | -0.0189 | 0.0085 | -0.0147 | 0.0282 | -0.0089 | -0.0563 | -0.064 | 0.0948 | 0.0182 | 0.028 | -0.0346 | -0.0148 | 0.0092 | 0.098 | -0.0083 | 0.0106 | 0.159 | -0.0228
7 | Cn1cnc2c(F)c(Nc3ccc(Br)cc3Cl)c(C(=O)NOCCO)cc21 [Selumetinib] + C=CCn1c(=O)c2cnc(Nc3ccc(N4CCN(C)CC4)cc3)nc2n1-c1cccc(C(C)(C)O)n1 [AZD1775] (first compound max 10 µM, partner max 1 µM) | -0.0698 | -0.0567 | -0.0025 | -0.0757 | -0.0559 | -0.0471 | 0.0111 | -0.0462 | -0.0121 | -0.0663 | -0.0277 | -0.0412 | -0.041 | 0.0065 | -0.075 | -0.053 | -0.019 | -0.0004 | -0.132 | 0.0185
8 | Cn1cnc2c(F)c(Nc3ccc(Br)cc3Cl)c(C(=O)NOCCO)cc21 [Selumetinib] + CC(C)n1c(=O)n(C)c2cnc3cc(F)c(-c4ccc(OCCCN5CCCCC5)nc4)cc3c21 [AZD1390] (first compound max 10 µM, 7x7, partner max 0.3 µM) | -0.0512 | -0.0352 | -0.0594 | -0.0347 | -0.0215 | -0.03 | 0.0296 | -0.061 | -0.0264 | -0.0467 | 0.0347 | -0.0336 | -0.085 | 0.0027 | -0.0462 | 0.0004 | -0.0269 | -0.0538 | -0.0326 | -0.0268
9 | Cn1cnc2c(F)c(Nc3ccc(Br)cc3Cl)c(C(=O)NOCCO)cc21 [Selumetinib] + CCN(CCO)CCCOc1ccc2c(Nc3cc(CC(=O)Nc4cccc(F)c4)[nH]n3)ncnc2c1 [AZD2811] (first compound max 10 µM, 7x7, partner max 1 µM) | -0.0468 | -0.0385 | -0.014 | 0.0179 | -0.0659 | -0.0743 | -0.0124 | -0.038 | 0.0054 | -0.0175 | 0.0378 | -0.0589 | -0.0442 | -0.0082 | -0.0377 | 0.0206 | -0.0115 | -0.0155 | -0.0015 | -0.0166
10 | Cn1cnc2c(F)c(Nc3ccc(Br)cc3Cl)c(C(=O)NOCCO)cc21 [Selumetinib] + C[C@@H]1COCCN1C2=NC(=NC(=C2)C3(CC3)[S@](=N)(=O)C)C4=C5C=CNC5=NC=C4 [AZD6738] (first compound max 10 µM, 7x7, partner max 10 µM) | 0.0169 | -0.03 | -0.0785 | 0.0428 | -0.0794 | -0.0816 | 0.0544 | -0.0264 | -0.0188 | -0.0381 | -0.0229 | -0.0373 | 0.0345 | -0.0244 | -0.0142 | 0.0058 | -0.0613 | -0.0029 | -0.049 | -0.0014
11 | CC(=O)Nc1cccc(-n2c(=O)n(C3CC3)c(=O)c3c(Nc4ccc(I)cc4F)n(C)c(=O)c(C)c32)c1 [Trametinib] + Cc1nc(-c2cn3c(n2)-c2ccc(-c4cnn(C(C)(C)C(N)=O)c4)cc2OCC3)n(C(C)C)n1 [Taselisib] (first compound max 1 µM, 7x7, partner max 10 µM) | 0.104 | 0.132 | 0.0141 | 0.104 | 0.0113 | 0.095 | 0.066 | 0.045 | -0.0544 | 0.121 | 0.127 | 0.0739 | 0.105 | 0.0994 | 0.171 | 0.232 | 0.0925 | 0.0304 | 0.158 | 0.112
12 | CC1(C)CCC(CN2CCN(c3ccc(C(=O)NS(=O)(=O)c4ccc(NCC5CCOCC5)c([N+](=O)[O-])c4)c(Oc4cnc5[nH]ccc5c4)c3)CC2)=C(c2ccc(Cl)cc2)C1 [Venetoclax] + C1CN(CCC1(C(=O)N[C@@H](CCO)C2=CC=C(C=C2)Cl)N)C3=NC=NC4=C3C=CN4 [Capivasertib] (first compound max 1 µM, 7x7, partner max 3 µM) | -0.0393 | -0.0151 | -0.0113 | -0.0102 | -0.0635 | -0.0591 | 0.0121 | -0.0362 | -0.0925 | -0.0161 | -0.0236 | -0.0574 | -0.0281 | -0.0377 | -0.0639 | 0.0239 | -0.0354 | 0.0242 | -0.016 | -0.0125
13 | CC1(C)CCC(CN2CCN(c3ccc(C(=O)NS(=O)(=O)c4ccc(NCC5CCOCC5)c([N+](=O)[O-])c4)c(Oc4cnc5[nH]ccc5c4)c3)CC2)=C(c2ccc(Cl)cc2)C1 [Venetoclax] + C=CCn1c(=O)c2cnc(Nc3ccc(N4CCN(C)CC4)cc3)nc2n1-c1cccc(C(C)(C)O)n1 [AZD1775] (first compound max 1 µM, partner max 1 µM) | 0.0002 | 0.0494 | 0.0351 | -0.0656 | -0.0049 | 0.0042 | -0.0226 | -0.009 | -0.0335 | -0.0347 | -0.0667 | -0.0444 | -0.0205 | 0.041 | -0.0159 | 0.0156 | -0.0522 | -0.282 | -0.0932 | -0.0523
14 | CC1(C)CCC(CN2CCN(c3ccc(C(=O)NS(=O)(=O)c4ccc(NCC5CCOCC5)c([N+](=O)[O-])c4)c(Oc4cnc5[nH]ccc5c4)c3)CC2)=C(c2ccc(Cl)cc2)C1 [Venetoclax] + CCN(CCO)CCCOc1ccc2c(Nc3cc(CC(=O)Nc4cccc(F)c4)[nH]n3)ncnc2c1 [AZD2811] (first compound max 1 µM, 7x7, partner max 1 µM) | 0.0264 | 0.0431 | 0.0194 | 0.0083 | -0.0372 | -0.0315 | -0.0506 | 0.0163 | 0.0005 | -0.0234 | 0.0056 | -0.0927 | -0.0694 | -0.0556 | -0.0051 | 0.0108 | -0.0372 | 0.0179 | -0.0176 | -0.007
15 | CC1(C)CCC(CN2CCN(c3ccc(C(=O)NS(=O)(=O)c4ccc(NCC5CCOCC5)c([N+](=O)[O-])c4)c(Oc4cnc5[nH]ccc5c4)c3)CC2)=C(c2ccc(Cl)cc2)C1 [Venetoclax] + CN(C)CCCOc1ccc(-c2ccc3ncc4c(c3c2)n(C2CCOCC2)c(=O)n4C)cn1 [AZD0156] (first compound max 1 µM, 7x7, partner max 1 µM) | -0.0338 | 0.0045 | 0.0147 | -0.0035 | -0.0841 | -0.0146 | -0.0291 | -0.018 | -0.0184 | 0.0005 | -0.0468 | -0.0782 | -0.0392 | 0.0173 | -0.0146 | 0.0038 | -0.0304 | -0.0548 | -0.0861 | 0.0105
